Patent publication US5914319A, “Antithrombotic agents” (Eli Lilly and Company, priority 1995, dated 1999)
Counter-ions that a name gives are not always drawn. Like-named read-outs stand apart in the source and are kept apart here.

Key:
[1] = early clinical studies, Simoons et al., Circulation, 90, I-231 (1994); cited from earlier work
[2] = tested on: Human plasma; test: Human plasma anticoagulation, thrombin time (TT); assay type: biochemical; settings: concentration required to double the thrombin time, linear extrapolation
Method in brief: (§1)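 Compound was spiked over a wide concentration range into citrated human plasma, and clotting times were read on a coagulation instrument. PT was started with saline plus Thromboplastin-C. APTT used 120 s preincubation with Actin, then 0.02M CaCl2. TT used saline plus bovine thrombin (10 NIH units/mL). Doubling concentrations were obtained by linear extrapolation.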

[3] = Index of bioavailability (% Relative Activity from plasma TT time course); assay type: in vivo; settings: dose-adjusted AUC of plasma TT time course, p.o. versus i.v. bolus
Experimental: Parke Davis) at 37° C. […] Assays are done in duplicate and averaged. […] Each sample population represented alternating sequential time points.

[4] = biological target: human thrombin (Homo sapiens, UniProt P00734); test: Inhibition of the amidase activity of thrombin (Kass); assay type: biochemical
[5] = tested on: Human plasma; test: Human plasma anticoagulation, prothrombin time (PT); assay type: biochemical; settings: concentration required to double the PT, linear extrapolation
Method in brief: as §1

[6] = tested on: Human plasma; test: Human plasma anticoagulation, activated partial thromboplastin time (APTT); assay type: biochemical; settings: concentration required to double the APTT, linear extrapolation
Method in brief: as §1

[7] = biological target: T1, factor Xa (Homo sapiens, UniProt P00742); test: Kass with other serine proteases: factor Xa; assay type: biochemical; settings: substrate N-Benzoyl-Ile-Glu-Gly-Arg-p-nitroanilide
T1 construct: Human factors X, Xa, IXa, XIa, and XIIa are purchased; purchased Enzyme Research Laboratories, South Bend, Ind
T1 sequence (P00742 235-488 limits assumed): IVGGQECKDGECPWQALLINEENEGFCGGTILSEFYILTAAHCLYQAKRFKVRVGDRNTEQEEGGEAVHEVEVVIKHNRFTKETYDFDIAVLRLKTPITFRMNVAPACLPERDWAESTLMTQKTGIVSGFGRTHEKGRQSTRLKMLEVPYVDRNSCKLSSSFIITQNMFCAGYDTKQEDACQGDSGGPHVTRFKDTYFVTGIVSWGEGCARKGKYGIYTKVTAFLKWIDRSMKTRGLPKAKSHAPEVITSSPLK
T1 sequence (P00742 41-179 partner limits assumed): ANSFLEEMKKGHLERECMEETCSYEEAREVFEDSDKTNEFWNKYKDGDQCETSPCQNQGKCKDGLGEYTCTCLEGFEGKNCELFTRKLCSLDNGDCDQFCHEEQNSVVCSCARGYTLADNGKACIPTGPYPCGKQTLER

[8] = biological target: T2, Bovine trypsin (Bos taurus, UniProt P00760); test: Kass with other serine proteases: trypsin; assay type: biochemical; settings: substrate N-Benzoyl-Phe-Val-Arg-p-nitroanilide
T2 construct: Bovine trypsin is purchased from Worthington Biochemicals; purchased Worthington Biochemicals, Freehold, N.J
T2 sequence (P00760 24-246): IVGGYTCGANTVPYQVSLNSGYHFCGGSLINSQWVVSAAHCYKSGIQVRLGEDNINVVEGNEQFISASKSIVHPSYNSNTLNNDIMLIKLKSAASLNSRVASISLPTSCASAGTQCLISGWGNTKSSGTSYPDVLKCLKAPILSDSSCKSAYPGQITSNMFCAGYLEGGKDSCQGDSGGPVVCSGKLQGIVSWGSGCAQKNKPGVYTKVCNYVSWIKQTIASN

[9] = biological target: T3, Human plasmin (Homo sapiens, UniProt P00747); test: Kass with fibrinolytic system proteases: plasmin; assay type: biochemical; settings: substrate H-D-Val-Leu-Lys-p-nitroanilide
T3 construct: Human plasmin is purchased from Boehringer Mannheim; purchased Boehringer Mannheim, Indianapolis, Ind
T3 sequence (P00747 581-810 limits assumed): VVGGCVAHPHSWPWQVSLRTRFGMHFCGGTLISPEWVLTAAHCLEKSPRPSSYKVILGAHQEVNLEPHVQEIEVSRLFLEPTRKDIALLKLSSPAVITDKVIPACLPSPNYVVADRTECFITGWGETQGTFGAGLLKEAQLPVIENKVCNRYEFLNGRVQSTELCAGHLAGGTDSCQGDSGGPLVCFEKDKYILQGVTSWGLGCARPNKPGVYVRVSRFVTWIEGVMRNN
T3 sequence (P00747 97-580 partner limits assumed): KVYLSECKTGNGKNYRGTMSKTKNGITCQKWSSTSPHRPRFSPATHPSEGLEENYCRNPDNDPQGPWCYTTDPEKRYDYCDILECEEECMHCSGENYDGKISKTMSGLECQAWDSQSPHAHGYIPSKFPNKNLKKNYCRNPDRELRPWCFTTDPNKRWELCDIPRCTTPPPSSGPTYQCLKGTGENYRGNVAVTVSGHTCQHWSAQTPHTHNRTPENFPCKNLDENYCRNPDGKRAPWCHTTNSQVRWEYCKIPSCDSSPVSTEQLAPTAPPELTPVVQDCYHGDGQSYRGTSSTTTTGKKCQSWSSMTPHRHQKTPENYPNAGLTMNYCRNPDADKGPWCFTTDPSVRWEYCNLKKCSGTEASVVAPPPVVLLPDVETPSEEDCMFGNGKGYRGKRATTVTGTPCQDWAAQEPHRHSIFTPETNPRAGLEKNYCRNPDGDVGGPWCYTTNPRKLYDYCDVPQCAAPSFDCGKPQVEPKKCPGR
Experimental: (§2) By substantially following the procedures described above for human thrombin, and using other human blood coagulation system serine proteases and proteases of the fibrinolytic system with the appropriate chromogenic substrates, identified below, selectivity of the compounds of the present invention with respect to the coagulation factor serine proteases and with respect to the fibrinolytic system serine proteases are evaluated as well as their substantial lack of interference with serine proteases of the fibrinolytic system. […] This would be important to the therapeutic use of such agents as an adjunct to streptokinase, t-PA or urokinase thrombolytic therapy and to the use of such agents as an endogenous fibrinolysis-sparing (with respect to t-PA and urokinase) antithrombotic agent. In addition to the lack of interference with the amidase activity of the fibrinolytic proteases, such fibrinolytic system sparing can be studied by the use of human plasma clots and their lysis by the respective fibrinolytic plasminogen activators.

[10] = biological target: T4, tissue plasminogen activator (t-PA) (Homo sapiens, UniProt P00750); test: Kass with fibrinolytic system proteases: t-PA; assay type: biochemical; settings: substrate H-D-Ile-Pro-Arg-p-nitroanilide
T4 construct: purchased American Diagnostica, Greenwich, Conn
T4 sequence (P00750 36-562): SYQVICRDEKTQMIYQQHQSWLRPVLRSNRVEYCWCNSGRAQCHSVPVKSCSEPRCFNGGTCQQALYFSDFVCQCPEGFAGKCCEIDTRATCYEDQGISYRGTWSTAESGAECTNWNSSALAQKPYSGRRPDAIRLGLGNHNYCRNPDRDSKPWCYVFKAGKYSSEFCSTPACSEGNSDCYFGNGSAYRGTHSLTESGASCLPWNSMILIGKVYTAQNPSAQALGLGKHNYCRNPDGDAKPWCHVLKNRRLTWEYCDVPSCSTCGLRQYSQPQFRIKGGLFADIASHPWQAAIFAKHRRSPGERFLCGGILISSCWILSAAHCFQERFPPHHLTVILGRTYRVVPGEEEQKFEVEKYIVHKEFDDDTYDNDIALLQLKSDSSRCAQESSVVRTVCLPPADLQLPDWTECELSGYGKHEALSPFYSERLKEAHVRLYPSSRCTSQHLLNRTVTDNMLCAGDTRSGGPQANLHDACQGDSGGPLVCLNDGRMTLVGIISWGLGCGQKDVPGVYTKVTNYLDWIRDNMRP
Experimental: as §2

[11] = mean over a range of test compound concentrations, […]

| Kass × 10^6 (L/mole) Human Thrombin [4, 11] | Kass × 10^6 (L/mole) Xa [7] | Kass × 10^6 (L/mole) Trypsin [8] | Kass × 10^6 (L/mole) Plasmin [9] | Kass × 10^6 (L/mole) t-PA [10] | Compound | anticoagulant in man [1] | Human Plasma Anticoagulation 2× Clotting time (ng/mL) TT [2] | % oral/i.v. activity (Rat) [3] | Human Plasma Anticoagulation 2× Clotting time (ng/mL) PT [5] | Human Plasma Anticoagulation 2× Clotting time (ng/mL) APTT [6] | Kass × 10^6 (L/mole) Human Thrombin [4] |
| --- | --- | --- | --- | --- | --- | --- | --- | --- | --- | --- | --- |
| 63 × 10^6 L/mole |  |  |  |  | Cl.Cl.Cl.N=C(N)NCCCCNC(=O)[C@@H]1CCCN1C(=O)[C@@H]1NCC[C@H]2CCCC[C@H]21 [Example 61, (4aR,8aR)-Perhydoisoquinoline-1(R)-carbonyl-Pro-Agm.3HCl] |  | 45 ng/mL |  | 756 ng/mL | 679 ng/mL |  |
| 15 × 10^6 L/mole |  |  |  |  | Nc1ccc(CNC(=O)[C@@H]2CCCN2C(=O)[C@@H](CC2CCCCC2)NCC(=O)O)c(F)c1 [Example 64, HO2 CCH2 -D-Cha-Pro-4-NHCH2 -3-F-C6 H3 NH2.HCl] |  | 23 ng/mL |  | 650 ng/mL | 900 ng/mL |  |
| 5.0 × 10^6 L/mole |  |  |  |  | CCS(=O)(=O)N[C@H](CC1CCCCC1)C(=O)N1CCC[C@H]1C(=O)NCc1ccc(N)cc1F [Example 82, EtSO2 -D-Cha-Pro-4-NHCH2 -3-F-C6 H3 NH2.HCl] |  | 130 ng/mL |  | 3,000 ng/mL | 3,800 ng/mL |  |
| 30 × 10^6 L/mole |  |  |  |  | N=C(N)c1ccc(CNC(=O)[C@@H]2CCCN2C(=O)[C@@H](CCc2ccccc2)NCC(=O)O)cc1 [Example 87, HOOCCH2 -D-hPhe-Pro-p-NHCH2 C6 H4 C(NH)NH2.HCl] |  | 9 ng/mL |  | 310 ng/mL | 260 ng/mL |  |
| 970 × 10^6 L/mole |  |  |  |  | CCS(=O)(=O)N[C@H](CC1CCCCC1)C(=O)N1CCC[C@H]1C(=O)NCc1ccc(C(=N)N)cc1F.Cl [Example 93, EtSO2 -D-Cha-Pro-4-NHCH2 -3-F-benzamidine.HCl] |  | 5.9 ng/mL |  | 140 ng/mL | 35 ng/mL |  |

The next lines start with the compound.

| Compound | Kass × 10^6 (L/mole) Human Thrombin [4, 11] | Kass × 10^6 (L/mole) Xa [7] | Kass × 10^6 (L/mole) Trypsin [8] | Kass × 10^6 (L/mole) Plasmin [9] | Kass × 10^6 (L/mole) t-PA [10] | anticoagulant in man [1] | Human Plasma Anticoagulation 2× Clotting time (ng/mL) TT [2] | % oral/i.v. activity (Rat) [3] | Human Plasma Anticoagulation 2× Clotting time (ng/mL) PT [5] | Human Plasma Anticoagulation 2× Clotting time (ng/mL) APTT [6] | Kass × 10^6 (L/mole) Human Thrombin [4] |
| --- | --- | --- | --- | --- | --- | --- | --- | --- | --- | --- | --- |
| CN[C@H](Cc1ccccc1)C(=O)N1CCC[C@H]1C(=O)N[C@H](C=O)CCCNC(=N)N.O=S(=O)(O)O [D-MePhe-Pro-Arg-H sulfate] |  |  |  |  |  | anticoagulant in man |  |  |  |  |  |
| CCS(=O)(=O)N[C@H](Cc1ccccc1)C(=O)N1CCC[C@H]1C(=O)NCCCCN=C(N)N.Cl [Example 1, EtSO2 -D-Phe-Pro-Agm.HCl] |  |  |  |  |  |  | 250 ng/mL | 8% |  |  |  |
| Cl.Cl.N=C(N)c1ccc(CNC(=O)C2CC3CCCCC3N2C(=O)C2NCCC3CCCCC32)cc1 [Example 42, D-1-Piq-cis-Ohi-p-NHCH2 C6 H4 C(NH)NH2.2HCl] | 38. × 10^6 L/mole |  |  |  |  |  | 20 ng/mL |  | 320 ng/mL | 270 ng/mL |  |
| N=C(N)c1ccc(CNC(=O)[C@@H]2CCCN2C(=O)[C@@H](CC2CCCCC2)NCC(=O)O)cc1 [Example 48, HOOCCH2 -D-Cha-Pro-p-NHCH2 C6 H4 C(NH)NH2.HCl] | 4,100 × 10^6 L/mole | 5.5 × 10^6 L/mole | 250. × 10^6 L/mole | 0.43 × 10^6 L/mole | 0.05 × 10^6 L/mole |  | 2. ng/mL |  | 59 ng/mL | 33 ng/mL |  |
| EtSO2 -D-Phe-Pro-p-NHCH2 --C6 H4 C(=NH)NH2.HCl [Example 23] | 770 × 10^6 L/mole |  |  |  |  |  | 7 ng/mL |  | 120 ng/mL | 86 ng/mL |  |
| EtSO2 -Phg-cis-Ohi-p-NHCH2 C6 H4 C(NH)NH2.HCl [Example 44] |  |  |  |  |  |  | 4. ng/mL |  | 170 ng/mL | 100 ng/mL | 630 |
